The record followed here is patent US5091370A, “Angolamycin derivatives” (Sanraku Incorporated, priority 1989, dated 1992).

The series is described as follows: Stability test against a mouse liver homogenate. Type of series: in vitro ADME, ICR-strain mice. Conditions: mouse liver homogenate supernatant, pH 7.2, 37° C., unchanged product remaining by TLC/chromatoscanner (283 nm), read-out: Residual activity ratio (%). The protocol:
The livers of ICR-strain mice were homogenized together with 5 times their amount of 0.1M phosphate buffer (pH 7.2) in a Potter homogenizer (3000 rpm, 10 minutes). One ml of 500 micrograms/ml of a test compound (10% methanol water) was added to the supernatant (1 ml) of the homogenate, and reacted at 37° C. for 1 hour. The mixture was heated at 100° C. of 3 minutes. Then, 1 ml of 0.1M phosphate buffer (pH 9.0) was added, and the mixture was extracted with 1 ml of ethyl acetate, organic layer was subjected to silica gel thin-layer chromatography (chloroform/methanol/ammonia=15/1.2/0.1), and by a chromatoscanner (283 nm), the ratio of an unchanged product and a hydrolyzed product formed was determined. The amount of the unchanged product remaining was expressed by percentage.
With `CCC1OC(=O)CC(O)C(C)C(OC2CC(N(C)C)C(OC3CC(C)(O)C(OC(=O)Cc4ccc(C(C)=O)cc4)C(C)O3)C(C)O2)C(CC=O)CC(C)C(=O)/C=C/C2(C)OC2C1COC1OC(C)C(O)C(OC)C1OC` (stereo not drawn) [Compound (1), 4"-O-(p-acetylphenylacetyl)-angolamycin], the remaining at 1 h came to 94%.
For the compound `CCC1OC(=O)CC(O)C(C)C(OC2CC(N(C)C)C(OC3CC(C)(O)C(OC(=O)Cc4ccc(OC)cc4)C(C)O3)C(C)O2)C(CC=O)CC(C)C(=O)/C=C/C2(C)OC2C1COC1OC(C)C(O)C(OC)C1OC` (stereo not drawn) [Compound (2), 4"-O-(p-methoxyphenylacetyl)-angolamycin], the remaining at 1 h came out at 95%.
With `CCC1OC(=O)CC(O)C(C)C(OC2CC(N(C)C)C(OC3CC(C)(O)C(OC(=O)CC(C)C)C(C)O3)C(C)O2)C(CC=O)CC(C)C(=O)/C=C/C2(C)OC2C1COC1OC(C)C(O)C(OC)C1OC` (stereo not drawn) [Control compound (1), 4"-O-isovaleryl angola-mycin, reference compound] the figure was 55%.
